In ChEMBL document CHEMBL1201862, “PubChem BioAssay data set” (2004):
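Grown in 96-well plates, cells were treated for 48 hours with each compound at five concentrations. Insufficient inhibition: endpoint recorded as highest concentration tested. GI50 = concentration required for 50% inhibition of growth.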 Active and inactive are the calls of the source. No stated cut-off is given here; in the data, active = GI50 up to about 1.1 µM and inactive = higher.

Key:
Assay in all cases: NCI tumour cell line growth inhibition, 48 h
[1] = test system: 786-0
[2] = test system: A498
[3] = test system: A549
[4] = test system: ACHN
[5] = test system: BT-549
[6] = test system: CAKI-1
[7] = test system: CCRF-CEM
[8] = test system: COLO 205
[9] = test system: DU-145
[10] = test system: EKVX
[11] = test system: HCC 2998
[12] = test system: HCT-116
[13] = test system: HCT-15
[14] = test system: HL-60
[15] = test system: HOP-62
[16] = test system: HOP-92
[17] = test system: HT-29
[18] = test system: Hs-578T
[19] = test system: IGROV-1
[20] = test system: K562
[21] = test system: KM12
[22] = test system: LOX IMVI
[23] = test system: MCF7
[24] = test system: MDA-MB-231
[25] = test system: MDA-MB-435
[26] = test system: MDA-N
[27] = test system: MOLT-4
[28] = test system: Malme-3M
[29] = test system: NCI-H226
[30] = test system: NCI-H23
[31] = test system: NCI-H460
[32] = test system: NCI-H522
[33] = test system: NCI/ADR-RES
[34] = test system: OVCAR-3
[35] = test system: OVCAR-4
[36] = test system: OVCAR-5
[37] = test system: OVCAR-8
[38] = test system: RXF 393
[39] = test system: SF-268
[40] = test system: SF-295
[41] = test system: SF-539
[42] = test system: SK-MEL-28
[43] = test system: SK-MEL-2
[44] = test system: SK-MEL-5
[45] = test system: SK-OV-3
[46] = test system: SN12C
[47] = test system: SNB-19
[48] = test system: SNB-75
[49] = test system: SR
[50] = test system: SW-620
[51] = test system: T47D
[52] = test system: TK-10
[53] = test system: UACC-257
[54] = test system: UACC-62
[55] = test system: UO-31
[56] = test system: M14
[57] = test system: PC-3
[58] = test system: RPMI-8226
[59] = test system: U-251

COc1ccc(C(=O)c2[nH]c(Nc3ccc(Cl)cc3)c(C(=S)Nc3ccccc3)c2N)cc1
GI50 [1]: > 100 µM (inactive)
GI50 [2]: > 100 µM (inactive)
GI50 [3]: > 100 µM (inactive)
GI50 [4]: > 100 µM (inactive)
GI50 [5]: > 100 µM (inactive)
GI50 [6]: > 100 µM (inactive)
GI50 [7]: > 100 µM (inactive)
GI50 [8]: > 100 µM (inactive)
GI50 [9]: > 100 µM (inactive)
GI50 [10]: > 100 µM (inactive)
GI50 [11]: > 100 µM (inactive)
GI50 [12]: 60.7 µM (inactive)
GI50 [13]: > 100 µM
GI50 [14]: > 100 µM (inactive)
GI50 [15]: > 100 µM (inactive)
GI50 [16]: > 100 µM (inactive)
GI50 [17]: 24.8 µM (inactive)
GI50 [18]: > 100 µM (inactive)
GI50 [19]: > 100 µM (inactive)
GI50 [20]: > 100 µM (inactive)
GI50 [21]: > 100 µM (inactive)
GI50 [22]: > 100 µM (inactive)
GI50 [23]: 70.5 µM (inactive)
GI50 [24]: > 100 µM (inactive)
GI50 [25]: > 100 µM (inactive)
GI50 [26]: > 100 µM (inactive)
GI50 [27]: > 100 µM (inactive)
GI50 [28]: > 100 µM (inactive)
GI50 [29]: 47 µM (inactive)
GI50 [30]: > 100 µM (inactive)
GI50 [31]: > 100 µM (inactive)
GI50 [32]: > 100 µM (inactive)
GI50 [33]: > 100 µM (inactive)
GI50 [34]: > 100 µM (inactive)
GI50 [35]: 23.8 µM (inactive)
GI50 [36]: > 100 µM (inactive)
GI50 [37]: > 100 µM (inactive)
GI50 [38]: > 100 µM (inactive)
GI50 [39]: > 100 µM (inactive)
GI50 [40]: > 100 µM (inactive)
GI50 [41]: > 100 µM (inactive)
GI50 [42]: 22.8 µM (inactive)
GI50 [43]: > 100 µM (inactive)
GI50 [44]: > 100 µM (inactive)
GI50 [45]: > 100 µM (inactive)
GI50 [46]: > 100 µM (inactive)
GI50 [47]: > 100 µM (inactive)
GI50 [48]: 44 µM (inactive)
GI50 [49]: > 100 µM (inactive)
GI50 [50]: > 100 µM (inactive)
GI50 [51]: > 100 µM (inactive)
GI50 [52]: > 100 µM (inactive)
GI50 [53]: > 100 µM (inactive)
GI50 [54]: > 100 µM (inactive)
GI50 [55]: > 100 µM (inactive)

COc1ccc(NC2Oc3cc4c(cc3C(c3cccc(OC)c3OC)C2C)OCO4)cc1 (centres undefined)
GI50 [1]: 7.96 µM (inactive)
GI50 [2]: 10.9 µM (inactive)
GI50 [3]: 5.53 µM (inactive)
GI50 [4]: 4.59 µM (inactive)
GI50 [5]: 13.5 µM (inactive)
GI50 [6]: 3.72 µM (inactive)
GI50 [7]: 3.61 µM (inactive)
GI50 [8]: 6.14 µM (inactive)
GI50 [9]: 4.16 µM (inactive)
GI50 [10]: 18.5 µM (inactive)
GI50 [11]: 43.5 µM (inactive)
GI50 [12]: 3.83 µM (inactive)
GI50 [13]: 2.96 µM
GI50 [14]: 3.22 µM (inactive)
GI50 [15]: 32.9 µM (inactive)
GI50 [16]: 3.32 µM (inactive)
GI50 [17]: 6.85 µM (inactive)
GI50 [18]: 7.96 µM (inactive)
GI50 [19]: 8.75 µM (inactive)
GI50 [20]: 4.21 µM (inactive)
GI50 [21]: 6.68 µM (inactive)
GI50 [22]: 11.4 µM (inactive)
GI50 [56]: 6.04 µM (inactive)
GI50 [23]: 8.81 µM (inactive)
GI50 [24]: 16.7 µM (inactive)
GI50 [25]: 10 µM (inactive)
GI50 [26]: 7.89 µM (inactive)
GI50 [27]: 2.9 µM (inactive)
GI50 [28]: 15.4 µM (inactive)
GI50 [29]: 6.82 µM (inactive)
GI50 [30]: 11.9 µM (inactive)
GI50 [31]: 5.86 µM (inactive)
GI50 [32]: 6.24 µM (inactive)
GI50 [34]: 5.35 µM (inactive)
GI50 [36]: 19.2 µM (inactive)
GI50 [37]: 5.13 µM (inactive)
GI50 [57]: 3.62 µM (inactive)
GI50 [58]: 11.4 µM (inactive)
GI50 [38]: 3.72 µM (inactive)
GI50 [39]: 10.1 µM (inactive)
GI50 [40]: 3.73 µM (inactive)
GI50 [41]: 17.7 µM (inactive)
GI50 [42]: 16.3 µM (inactive)
GI50 [43]: 5.3 µM (inactive)
GI50 [44]: 13.6 µM (inactive)
GI50 [45]: 70 µM (inactive)
GI50 [46]: 6.19 µM (inactive)
GI50 [47]: 53.3 µM (inactive)
GI50 [48]: 5.06 µM (inactive)
GI50 [49]: 2.04 µM (inactive)
GI50 [50]: 5.83 µM (inactive)
GI50 [51]: 5.08 µM (inactive)
GI50 [52]: 6.4 µM (inactive)
GI50 [59]: 4.01 µM (inactive)
GI50 [53]: 4.46 µM (inactive)
GI50 [54]: 14.9 µM (inactive)
GI50 [55]: 5.85 µM (inactive)

O=c1c(-c2ccccc2F)coc2cc(F)ccc12
GI50 [1]: 79.6 µM (inactive)
GI50 [2]: > 100 µM (inactive)
GI50 [3]: > 100 µM (inactive)
GI50 [4]: > 100 µM (inactive)
GI50 [5]: 99.1 µM (inactive)
GI50 [6]: > 100 µM (inactive)
GI50 [7]: > 100 µM (inactive)
GI50 [8]: > 100 µM (inactive)
GI50 [9]: > 100 µM (inactive)
GI50 [10]: > 100 µM (inactive)
GI50 [12]: > 100 µM (inactive)
GI50 [13]: > 100 µM
GI50 [14]: 70.6 µM (inactive)
GI50 [15]: > 100 µM (inactive)
GI50 [16]: > 100 µM (inactive)
GI50 [17]: > 100 µM (inactive)
GI50 [18]: > 100 µM (inactive)
GI50 [19]: 88.3 µM (inactive)
GI50 [21]: > 100 µM (inactive)
GI50 [22]: 34.8 µM (inactive)
GI50 [56]: > 100 µM (inactive)
GI50 [24]: > 100 µM (inactive)
GI50 [25]: > 100 µM (inactive)
GI50 [26]: > 100 µM (inactive)
GI50 [27]: > 100 µM (inactive)
GI50 [29]: > 100 µM (inactive)
GI50 [30]: 63.4 µM (inactive)
GI50 [31]: > 100 µM (inactive)
GI50 [32]: 37.7 µM (inactive)
GI50 [34]: > 100 µM (inactive)
GI50 [35]: > 100 µM (inactive)
GI50 [36]: > 100 µM (inactive)
GI50 [37]: > 100 µM (inactive)
GI50 [57]: > 100 µM (inactive)
GI50 [38]: > 100 µM (inactive)
GI50 [39]: > 100 µM (inactive)
GI50 [40]: > 100 µM (inactive)
GI50 [41]: 91.4 µM (inactive)
GI50 [42]: > 100 µM (inactive)
GI50 [43]: > 100 µM (inactive)
GI50 [44]: > 100 µM (inactive)
GI50 [45]: > 100 µM (inactive)
GI50 [46]: > 100 µM (inactive)
GI50 [47]: > 100 µM (inactive)
GI50 [48]: 24.2 µM (inactive)
GI50 [50]: > 100 µM (inactive)
GI50 [51]: > 100 µM (inactive)
GI50 [52]: > 100 µM (inactive)
GI50 [59]: 97.7 µM (inactive)
GI50 [53]: > 100 µM (inactive)
GI50 [54]: > 100 µM (inactive)
GI50 [55]: > 100 µM (inactive)
